Legend:
Type in all cases: functional
Mus musculus [1] = species on record: Mus musculus; assay: Inhibition of PTH-stimulated bone resorption at concentration of 2 uM
Mus musculus [2] = species on record: Mus musculus; assay: Inhibition of PTH-stimulated bone resorption at concentration of 5 uM
Mus musculus [3] = species on record: Mus musculus; assay: Inhibition of PTH-stimulated osteoclast-like cell formation at concentration 5 uM
Mus musculus [4] = species on record: Mus musculus; assay: Inhibition of PTH-stimulated osteoclast-like cell formation at concentration 10 uM
Mus musculus [5] = species on record: Mus musculus; assay: Inhibition of PTH-stimulated osteoclast-like cell formation at concentration 2 uM
Mus musculus [6] = species on record: Mus musculus; assay: compound was evaluated in vitro for the inhibition of PTH-stimulated osteoclast-like cell formation at concentration 5 uM
Mus musculus [7] = species on record: Mus musculus; assay: compound was evaluated in vitro for the inhibition of PTH-stimulated osteoclast-like cell formation at concentration 10 uM
Mus musculus [8] = species on record: Mus musculus; assay: compound was evaluated in vitro for the inhibition of PTH-stimulated osteoclast-like cell formation at concentration 2 uM
Mus musculus [9] = species on record: Mus musculus; assay: compound was evaluated in vitro for the inhibition of PTH-stimulated osteoclast-like cell formation at concentration 0.5 uM
Mus musculus [10] = species on record: Mus musculus; assay: compound was evaluated in vitro for the inhibition of PTH-stimulated osteoclast-like cell formation at concentration 0.05 uM
Mus musculus [11] = species on record: Mus musculus; assay: Inhibition of PTH-stimulated bone resorption at concentration of 10 uM
Mus musculus [12] = species on record: Mus musculus; assay: compound was evaluated in vitro for the inhibition of PTH-stimulated osteoclast-like cell formation at concentration 0.1 uM

| Compound | Inhibition (Mus musculus [1]) [%] | Inhibition (Mus musculus [2]) [%] | inhibition at 5 µM (Mus musculus [3]) [%] | inhibition at 10 µM (Mus musculus [4]) [%] | inhibition at 2 µM (Mus musculus [5]) [%] | inhibition at 5 µM (Mus musculus [6]) [%] | inhibition at 10 µM (Mus musculus [7]) [%] | inhibition at 2 µM (Mus musculus [8]) [%] | inhibition at 0.5 µM (Mus musculus [9]) [%] | inhibition at 0.05 µM (Mus musculus [10]) [%] | Inhibition (Mus musculus [11]) [%] | inhibition at 0.1 µM (Mus musculus [12]) [%] |
| --- | --- | --- | --- | --- | --- | --- | --- | --- | --- | --- | --- | --- |
| C[C@@]1(CO)CCC[C@@]2(C)C1[C@H](OC(=O)c1ccccc1)C[C@H]1C[C@@H](O)[C@@]3(C)CC[C@]12C3 (stereo partly drawn) | -60 | 95 | 87 | 105 | 17 |  |  |  |  |  |  |  |
| C[C@@]1(CO)CCC[C@@]2(C)C1[C@H](OC(=O)c1ccccc1)C[C@H]1C[C@H](O)[C@@]3(C)CC[C@]12C3 (stereo partly drawn) | -51 | 99 |  |  |  | 75 | 94 | 24 |  |  |  |  |
| C[C@]12CC[C@]3(C1)C(CC2=O)C[C@@H](OC(=O)c1ccccc1)C1[C@](C)(CO)CCC[C@@]13C (stereo partly drawn) | 106 | 99 | 137 | 137 | 137 |  |  |  | 137 | 44 | 99 | 115 |
| C[C@]12CC[C@]3(C1)[C@@H](C[C@@H](O)[C@H]1[C@](C)(CO)CCC[C@@]13C)C[C@H]2O | -8 | 6 |  |  |  |  |  |  |  |  | -17 |  |
| CC(=O)OC[C@]1(C)CCC[C@@]2(C)[C@H]1[C@H](OC(=O)c1ccccc1)C[C@H]1CC(=O)[C@@]3(C)CC[C@]12C3 | 12 | 107 | 90 | 105 | 45 |  |  |  |  |  | 125 |  |
| CC(=O)O[C@@H]1C[C@H]2CC(=O)[C@@]3(C)CC[C@@]2(C3)[C@@]2(C)CCC[C@@](C)(C(=O)O)[C@H]12 | 33 | 40 | 27 | 37 | -8 |  |  |  |  |  | 47 |  |
| C[C@]12CC[C@]3(C1)[C@@H](C[C@@H](OC(=O)c1ccccc1)[C@H]1[C@](C)(C(=O)O)CCC[C@@]13C)C[C@@H]2O | 35 | 39 | 75 | 93 | 24 |  |  |  |  |  | 70 |  |
| COC(=O)[C@]1(C)CCC[C@@]2(C)[C@H]1[C@H](OC(=O)c1ccccc1)C[C@H]1C[C@H](OC(C)=O)[C@@]3(C)CC[C@]12C3 | 38 | 51 | 109 | 134 | 81 |  |  |  |  |  | 55 |  |
| COC(=O)[C@]1(C)CCC[C@@]2(C)[C@H]1[C@H](OC(=O)c1ccccc1)C[C@H]1C[C@@H](O)[C@@]3(C)CC[C@]12C3 | 22 | 29 |  |  |  |  |  |  |  |  | 49 |  |
| COC(=O)[C@]1(C)CCC[C@@]2(C)[C@H]1[C@H](OC(=O)c1ccccc1)C[C@H]1C[C@H](O)[C@@]3(C)CC[C@]12C3 | -23 | -17 |  |  |  |  |  |  |  |  | -10 |  |
| C[C@]12CC[C@]3(C1)[C@H](C/C2=N\O)C[C@@H](OC(=O)c1ccccc1)[C@H]1[C@](C)(C(=O)O)CCC[C@@]13C | 28 | 66 |  |  |  |  |  |  |  |  | 90 |  |
| CC(=O)O[C@@H]1C[C@@H]2C[C@@H](OC(=O)c3ccccc3)[C@H]3[C@](C)(C(=O)O)CCC[C@]3(C)[C@]23CC[C@@]1(C)C3 | 27 | 26 | 72 | 79 | 55 |  |  |  |  |  | 42 |  |
| COC(=O)[C@]1(C)CCC[C@@]2(C)[C@H]1[C@H](OC(=O)c1ccccc1)C[C@H]1C[C@@H](OC(C)=O)[C@@]3(C)CC[C@]12C3 | 55 | 40 | 70 | 112 | 60 |  |  |  |  |  | 37 |  |
| C[C@]12CC[C@]3(C1)[C@H](C[C@H]2O)C[C@@H](OC(=O)c1ccccc1)[C@H]1[C@](C)(C(=O)O)CCC[C@@]13C | 45 | 40 | 87 | 104 | 17 |  |  |  |  |  | 37 |  |
| COC(=O)[C@]1(C)CCC[C@@]2(C)[C@H]1[C@H](OC(=O)c1ccccc1)C[C@H]1CC(=O)[C@@]3(C)CC[C@]12C3 | 78 | 74 | 91 | 118 | 70 |  |  |  |  |  | 110 |  |
| C[C@]12CC[C@]3(C1)[C@@H](C[C@@H](O)[C@H]1[C@](C)(CO)CCC[C@@]13C)C[C@@H]2O | -5 | -25 |  |  |  |  |  |  |  |  | -4 |  |
| CC(=O)O[C@H]1C[C@@H]2C[C@@H](OC(=O)c3ccccc3)[C@H]3[C@](C)(C(=O)O)CCC[C@]3(C)[C@]23CC[C@@]1(C)C3 | 21 | 18 |  |  |  |  |  |  |  |  | 8 |  |
| C[C@]12CC[C@]3(C1)C(CC2=O)C[C@@H](O)C1[C@](C)(C(=O)O)CCC[C@@]13C (stereo partly drawn) | 43 | 92 | 10 | 20 | 0 |  |  |  |  |  | 94 |  |
| CC(=O)OC[C@]1(C)CCC[C@@]2(C)C1[C@H](O)CC1C[C@H](OC(C)=O)[C@@]3(C)CC[C@]12C3 (stereo partly drawn) | 1 | 23 |  |  |  |  |  |  |  |  | 11 |  |
| C[C@]12CC[C@]3(C1)[C@H](CC2=O)C[C@@H](OC(=O)c1ccccc1)[C@H]1[C@@](CO)(C(=O)O)CCC[C@@]13C [SCOPADULCIC ACID A] | 46 | 24 |  |  |  |  |  |  |  |  | -14 |  |
| C[C@]12CC[C@]3(C1)[C@H](CC2=O)C[C@@H](OC(=O)c1ccccc1)[C@H]1[C@](C)(C(=O)O)CCC[C@@]13C [SCOPADULCIC ACID B] | 28 | 76 | 74 | 87 | 59 |  |  |  |  |  | 94 |  |
